Test results as given in US8124593B2, “Methods of treatment using sapacitabine” (Cyclacel Limited, priority 2007, dated 2012).

How the values were obtained:
[1] = molecular target: cytidine deaminase (Homo sapiens, UniProt P32320); conditions: compared with ara-C; cited from earlier work
[2] = tested on: CTCL; conditions: cited from earlier work
[3] = tested on: refractory solid tumours or lymphomas; experiment: Open label dose escalation study of oral sapacitabine b.i.d. for 7 or 14 consecutive days every 21 days; format: in vivo
Procedure: The study was conducted at the Institute for Drug Development, Cancer Therapy and Research Center (CTRC) in San Antonio, Tex. and Fox Chase Cancer Center in Philadelphia, Pa. The primary objective of the study was to evaluate the safety profile of sapacitabine administered twice daily for 14 consecutive days or 7 consecutive days every 21 days.
The study was an open label dose escalation study of oral sapacitabine administered twice daily (b.i.d.) for 7 or 14 consecutive days every 21 days. One treatment cycle was 3 weeks. At least 3 patients were enrolled at each dose level. Dose escalation proceeded if ≦⅓ or ≦ 2/6 patients experienced dose limiting toxicity (DLT) during the first treatment cycle.

[4] = tested on: advanced leukemias or myelodysplastic syndromes; experiment: Phase I study, b.i.d. x 7 days orally every 21 days; format: in vivo
Procedure: The Phase I study was conducted at M.D. Anderson Cancer Center (UTMDACC) in Houston, Tex. The primary objective was to define the MTD of a dosing schedule, b.i.d.×7 days orally every 21 days.
Eligible patients had relapsed/refractory leukemias or MDS, or untreated disease if not willing to proceed with conventional systemic chemotherapy, adequate organ functions and performance status of 0-2. At least 3 patients were enrolled at each dose level. The MTD was the highest dose level at which ≦ 2/6 patients experienced a DLT during the first treatment cycle.

[5] = tested on: solid tumours or lymphomas; conditions: 14 days every 21 days, body surface area basis; cited from earlier work
[6] = tested on: colon cancer; conditions: model of colon cancer; cited from earlier work
[7] = tested on: variety of cancers; conditions: phase I data; cited from earlier work
[8] = tested on: P388 leukemia; conditions: mouse P388 leukemia model; cited from earlier work
[9] = tested on: poorly differentiated gastric adenocarcinoma; conditions: human xenografts; cited from earlier work
[10] = single-dose in rodents, repeat dose up to 3 months in mice and dogs; cited from earlier work
[11] = tested on: NSCLC; conditions: 10 mg/m^2 intravenously over 30 minutes every three weeks; cited from earlier work
[12] = 7-day schedule every 21 days, oral
[13] = relapsed or refractory AML and MDS

Sequence of cytidine deaminase (P32320 whole entry, species assumed): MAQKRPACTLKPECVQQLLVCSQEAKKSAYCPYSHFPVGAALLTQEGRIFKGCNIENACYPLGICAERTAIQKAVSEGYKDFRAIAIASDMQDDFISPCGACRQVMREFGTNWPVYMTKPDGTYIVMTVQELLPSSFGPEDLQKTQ

## N#C[C@H]1[C@H](O)[C@@H](CO)O[C@H]1n1ccc(N)nc1=O [CNDAC, 2′-C-Cyano-2′-deoxy-β-D-arabino-pentafuranosylcytosine]
[1]
  substrate of cytidine deaminase: weak substrate

## Nc1ccn([C@@H]2O[C@H](CO)[C@@H](O)C2(F)F)c(=O)n1 [Gemcitabine, gemcitabine]
[2]
  response rate: 60-70%

## CCCCCCCCCCCCCCCC(=O)Nc1ccn([C@@H]2O[C@H](CO)[C@@H](O)[C@@H]2C#N)c(=O)n1 [sapacitabine, 1-(2-C-cyano-2-deoxy-β-D-arabino-pentofuranosyl)-N^4-palmitoyl cytosine]
[3]; [12]
  MTD: 100 mg b.i.d.
  RD (recommended dose): 75 mg b.i.d.
[3]; 7 and 14 day schedules, 16 patients
  dose limiting toxicity: reversible myelosuppression
[3]; 7 day schedule, squamous cell carcinoma
  best response by investigator assessment: stable disease in one patient
[3]; 14 day schedule every 21 days, oral
  recommended dose: 50 mg b.i.d.
[3]; in vivo
  non-hematological toxicities, severity: mostly mild to moderate
[4]; [12]
  MTD: 375 mg b.i.d.
  recommended dose: 325 mg b.i.d.
[4]; AML subgroup of responders
  patients with reduction in bone marrow blast counts to <5%, AML: 9 patients
[4]; MDS subgroup of responders
  patients with reduction in bone marrow blast counts to <5%, MDS: 2 patients
[4]; all evaluable patients
  patients with reduction in bone marrow blast counts to <5%: 11 patients of 42 evaluable
[4]; all grades, regardless of causality
  common non-hematologic adverse events, intensity: mild to moderate in intensity
[4]; in vivo
  CRs with incomplete recovery of platelets: 2 patients
  complete remissions (CRs): 2 patients
  deaths from complications of neutropenic colitis: One
  predominant DLT: gastrointestinal toxicity
[4]; number of patients
  DLT: abdominal pain/small bowel obstruction: 1 n
  DLT: diarrhea: 3 n
  DLT: neutropenic colitis: 2 n
[4]; [13]
  antileukemic activity: promising antileukemic activity
  tolerability: well tolerated
[5]
  recommended dose: 33 mg/m^2
[6]
  anticancer activity: strong anticancer activity
  increasing survival and preventing spread of metastases to the liver, comparison: superior to either gemcitabine or 5-FU
[7]
  dose limiting toxicity: myelosuppression
  tolerability: well tolerated
[8]
  antitumour activity, comparison: much more potent antitumour activity than 5′-DFUR and gemcitabine
[9]
  antitumour activity, comparison: much more potent antitumour activity than 5′-DFUR and gemcitabine
[10]
  major toxicities: hematopoietic, gastrointestinal, and testicular

## Nc1ccn([C@@H]2CO[C@H](CO)O2)c(=O)n1 [troxacitabine]
[11]
  activity in NSCLC: little activity
